Results on eleven molecules are retold here after US20250115598A1 (Anaxis Pharma Pty Ltd, priority 2021, published 2025).

One assay concerns the target human MLKL (full length) (Homo sapiens (Human), UniProt Q8NB16). Nature of the assay: KINOMEscan binding assay, human MLKL (full length). The note with it: hMLKL, Table 25; read-out: MLKL (KD). The essentials:
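Tagged kinase + immobilized ligand beads + compound; eluted kinase quantified by qPCR. Kinase source: T7 phage lysate (BL21-derived E. coli, 32 °C) or HEK-293 with DNA tag. 11-pt 3-fold series, 1% DMSO, top 30,000 nM (most). Hill fit, slope −1 → Kd.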

Assay [1] has as its system Immortalised Mouse Dermal Fibroblasts (MDFs). Nature of the assay: Cellular assay: inhibition of TSI induced necroptosis, CellTitre-Glo viability. The note with it: Mus musculus, Fibroblast; MDF, 3 hours TSI cocktail, Table 27; read-out: Inhibition of TSI-induced necroptosis (IC50 cell-based assay) in MDF. The essentials: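 Immortalised mouse dermal fibroblasts (2200 cells/well) pretreated 30 min with compound, 10-point 1:3 series from 36 μM, 0.3% DMSO. Then 3 h at 37° C. with TNF (100 ng/ml), Smac mimetic (500 nM) and IDN-6556 (10 μM). CellTiter-Glo luminescence normalised to DMSO (100%) and DMSO+TSI (0%); IC50 from 4-parameter logistic fit.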

In a further assay the target is endogenous MLKL in U937 (Homo sapiens (Human), UniProt Q8NB16). Nature of the assay: Degradation assay: endogenous MLKL in U937 (western blot). The note with it: U937, 24 h incubation, read-out: Degradation of endogenous MLKL in U937 (DC50 cell-based assay). The procedure, abridged: (§1)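 MDF (seeded the day before) or U937 cells were treated 24 h at 37 °C, 10% CO2 with compound at 10, 2, 0.4, 0.08 and 0.016 μM final. Endogenous MLKL was quantified by western blot (anti-MLKL 3H1), normalized to GAPDH. Percent degradation was taken relative to DMSO control.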
Sequence of endogenous MLKL in U937 (Q8NB16 whole entry): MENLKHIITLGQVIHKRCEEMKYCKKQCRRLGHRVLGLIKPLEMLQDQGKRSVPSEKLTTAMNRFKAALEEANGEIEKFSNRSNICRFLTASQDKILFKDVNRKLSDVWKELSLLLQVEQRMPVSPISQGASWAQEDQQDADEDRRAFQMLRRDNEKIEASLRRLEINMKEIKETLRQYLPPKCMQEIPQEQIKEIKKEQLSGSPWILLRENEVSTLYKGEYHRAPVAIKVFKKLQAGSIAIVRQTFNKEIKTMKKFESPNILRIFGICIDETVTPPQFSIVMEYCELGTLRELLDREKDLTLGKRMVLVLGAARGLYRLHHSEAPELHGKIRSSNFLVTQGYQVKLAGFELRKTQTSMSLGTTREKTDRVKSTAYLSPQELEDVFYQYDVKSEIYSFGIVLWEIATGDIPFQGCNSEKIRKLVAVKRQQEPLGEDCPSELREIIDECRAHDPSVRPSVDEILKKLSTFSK

For another assay, the target named is endogenous MLKL in MDF (Mus musculus (Mouse), UniProt Q9D2Y4). Briefly: Degradation assay: endogenous MLKL in MDF (western blot). Conditions: MDF cells, 24 h incubation with compound, MLKL adjusted for loading with GAPDH, normalized to DMSO only control, read-out: Degradation of endogenous MLKL in MDF (DC50 cell-based assay). The essentials:
as §1
(A western blot detects proteins with antibodies after separation by electrophoresis.)

pIC50, pKd: −log10 of the molar value. Bounds are passed on as bounds.

Sequence of human MLKL (full length) (Q8NB16 whole entry): as above
Sequence of endogenous MLKL in MDF (Q9D2Y4 whole entry): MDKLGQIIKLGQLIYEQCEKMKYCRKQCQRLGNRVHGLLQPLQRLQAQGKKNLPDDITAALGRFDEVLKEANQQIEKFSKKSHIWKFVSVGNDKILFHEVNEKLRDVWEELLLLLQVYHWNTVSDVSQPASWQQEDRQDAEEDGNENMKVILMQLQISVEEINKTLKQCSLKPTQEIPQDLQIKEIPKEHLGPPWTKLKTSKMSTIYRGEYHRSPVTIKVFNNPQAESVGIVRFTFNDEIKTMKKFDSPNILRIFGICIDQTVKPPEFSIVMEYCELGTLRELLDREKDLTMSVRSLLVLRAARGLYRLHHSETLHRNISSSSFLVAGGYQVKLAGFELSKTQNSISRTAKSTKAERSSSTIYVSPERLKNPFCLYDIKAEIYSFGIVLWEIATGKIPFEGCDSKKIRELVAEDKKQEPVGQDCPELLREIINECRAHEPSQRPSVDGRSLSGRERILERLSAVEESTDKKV

A word on the pKd: it is the Kd on a negative log10 scale, so that one unit is a factor of ten. Broadly, the pIC50 is −log10 of the IC50, conventionally taken in molar units. What is called DC50 is the concentration at which degradation of the target reaches its halfway point. With `C[C@H](Oc1cc(-c2nn(C)c3c(-c4cnn(C5CCN(C(=O)COC6CCN(c7cccc8c7C(=O)N(C7CCC(=O)NC7=O)C8=O)CC6)CC5)c4)cnc(N)c23)ccc1NS(=O)(=O)C(F)F)c1ccc(F)cc1` (stereo partly drawn) [Compound 1072, N-{4-[4-amino-7-(1-{1-[2-({1-[2-(2,6-dioxopiperidin-3-yl)-1,3-dioxo-2,3-dihydro-1H-isoindol-4-yl]piperidin-4-yl}oxy)acetyl]piperidin-4-yl}-1H-pyrazol-4-yl)-1-methyl-1H-pyrazolo[4,3-c]pyridin-3-yl]-2-[(1S)-1-(4-fluorophenyl)ethoxy]phenyl}-1,1-difluoromethane-sulfonamide], the pKd on human MLKL (full length) was over 8.00. Moreover, the pIC50 in assay [1] is 5.00 to 6.00. The 50% degradation concentration (DC50) on endogenous MLKL in U937 and on endogenous MLKL in MDF was under 1000 nM throughout.
Consider `C[C@H](Oc1cc(-c2nn(C)c3c(-c4cnn(C5CCN(C(=O)CC6CCCN(c7cccc8c7C(=O)N(C7CCC(=O)NC7=O)C8=O)C6)CC5)c4)cnc(N)c23)ccc1NS(=O)(=O)C(F)F)c1ccc(F)cc1` (stereo partly drawn) [Compound 1073, N-[4-(4-amino-7-{1-[1-(2-{1-[1,3-dioxo-2-(2-oxo-piperidin-3-2,3-yl)-dihydro-1H-isoindol-4-yl]piperidin-3-yl}acetyl)piperidin-4-yl]-1H-pyrazol-4-yl}-1-methyl-1H-pyrazolo[4,3-c]pyridin-3-yl)-2-[(1S)-1-(4-fluorophenyl)ethoxy]phenyl]-1,1-difluoromethanesulfonamide], for which the pKd on human MLKL (full length) was 6.00 to 8.00. In assay [1], the pIC50 is over 6.00. Further, the DC50 on endogenous MLKL in U937 and at endogenous MLKL in MDF was under 1000 nM each time.
As to `C[C@H](Oc1cc(-c2nn(C)c3c(-c4cnn(C5CCN(C(=O)C6CC7(C6)CN(c6cccc8c6C(=O)N(C6CCC(=O)NC6=O)C8=O)C7)CC5)c4)cnc(N)c23)ccc1NS(=O)(=O)C(F)F)c1ccc(F)cc1` (stereo partly drawn) [Compound 1074, N-(4-{4-amino-7-[1-(1-{2-[2-(2,6-dioxopiperidin-3-yl)-1,3-dioxo-2,3-dihydro-1H-isoindol-4-yl]-2-azaspiro[3.3]heptane-6-carbonyl}piperidin-4-yl)-1H-pyrazol-4-yl]-1-methyl-1H-pyrazolo[4,3-c]pyridin-3-yl}-2-[(1S)-1-(4-fluorophenyl)ethoxy]phenyl)-1,1-difluoromethanesulfonamide], the pKd on human MLKL (full length) is 6.00 to 8.00. For the same molecule, the pIC50 in assay [1] is over 6.00. Further, the DC50 on endogenous MLKL in U937 and on endogenous MLKL in MDF was under 1000 nM in each case.
For `C[C@H](Oc1cc(-c2nn(C)c3c(-c4cnn(C5CCN(CCC6CCN(c7cccc8c7C(=O)N(C7CCC(=O)NC7=O)C8=O)CC6)CC5)c4)cnc(N)c23)ccc1NS(=O)(=O)C(F)F)c1ccc(F)cc1` (stereo partly drawn) [Compound 1076, N-[4-(4-amino-7-{1-[1-(2-{1-[2-(2,6-dioxopiperidin-3-yl)-1,3-dioxo-2,3-dihydro-1H-isoindol-4-yl]piperidin-4-yl}ethyl)piperidin-4-yl]-1H-pyrazol-4-yl}-1-methyl-1H-pyrazolo[4,3-c]pyridin-3-yl)-2-[(1S)-1-(4-fluorophenyl)ethoxy]phenyl]-1,1-difluoromethane-sulfonamide], on human MLKL (full length), the pKd is over 8.00. Besides, in assay [1], the pIC50 is over 6.00. The results for the DC50 on endogenous MLKL in U937 and on endogenous MLKL in MDF were under 1000 nM and 1000 to 10000 nM, respectively.
Consider `C[C@H](Oc1cc(-c2nn(C)c3c(-c4cnn(C5CCN(CCCC6CCN(c7cccc8c7C(=O)N(C7CCC(=O)NC7=O)C8=O)CC6)CC5)c4)cnc(N)c23)ccc1NS(=O)(=O)C(F)F)c1ccc(F)cc1` (stereo partly drawn) [Compound 1078, N-[4-(4-amino-7-{1-[1-(3-{1-[2-(2,6-dioxopiperidin-3-yl)-1,3-dioxo-2,3-dihydro-1H-isoindol-4-yl]piperidin-4-yl}propyl)piperidin-4-yl]-1H-pyrazol-4-yl}-1-methyl-1H-pyrazolo[4,3-c]pyridin-3-yl)-2-[(1S)-1-(4-fluorophenyl)ethoxy]phenyl]-1,1-difluoromethane-sulfonamide], for which, at human MLKL (full length), the pKd is over 8.00. In assay [1], the pIC50 is over 6.00. Also, the DC50 on endogenous MLKL in U937 and at endogenous MLKL in MDF was 1000 to 10000 nM each time.
`C[C@H](Oc1cc(-c2nn(C)c3c(-c4cnn(C5CCN(CC6CCN(c7cccc8c7C(=O)N(C7CCC(=O)NC7=O)C8=O)CC6)CC5)c4)cnc(N)c23)ccc1NS(=O)(=O)C(F)F)c1ccc(F)cc1` (stereo partly drawn) [Compound 1079, N-[4-(4-amino-7-{1-[1-({1-[2-(2,6-dioxopiperidin-3-yl)-1,3-dioxo-2,3-dihydro-1H-isoindol-4-yl]piperidin-4-yl}methyl)piperidin-4-yl]-1H-pyrazol-4-yl}-1-methyl-1H-pyrazolo[4,3-c]pyridin-3-yl)-2-[(1S)-1-(4-fluorophenyl)ethoxy]phenyl]-1,1-difluoromethane-sulfonamide]: the pKd at human MLKL (full length) is over 8.00. Besides, the pIC50 in assay [1] was over 6.00. Besides, the DC50 on endogenous MLKL in U937 and at endogenous MLKL in MDF was under 1000 nM throughout.
As for `C[C@H](Oc1cc(-c2nn(C)c3c(-c4cnn(C5CCN(C(=O)CC6CN(c7cccc8c7C(=O)N(C7CCC(=O)NC7=O)C8=O)CCO6)CC5)c4)cnc(N)c23)ccc1NS(=O)(=O)C(F)F)c1ccc(F)cc1` (stereo partly drawn) [Compound 1081, N-[4-(4-amino-7-{1-[1-(2-{4-[2-(2,6-dioxopiperidin-3-yl)-1,3-dioxo-2,3-dihydro-1H-isoindol-4-yl]morpholin-2-yl}acetyl)piperidin-4-yl]-1H-pyrazol-4-yl}-1-methyl-1H-pyrazolo[4,3-c]pyridin-3-yl)-2-[(1S)-1-(4-fluorophenyl)ethoxy]phenyl]-1,1-difluoromethanesulfonamide], the pKd on human MLKL (full length) was over 8.00. Moreover, the pIC50 in assay [1] is over 6.00. In addition, the DC50 on endogenous MLKL in U937 and on endogenous MLKL in MDF was under 1000 nM each time.
Regarding `C[C@H](Oc1cc(-c2nn(C)c3c(-c4cnn(C5CCN(C(=O)COc6cccc7c6C(=O)N(C6CCC(=O)NC6=O)C7=O)CC5)c4)cnc(N)c23)ccc1NS(=O)(=O)C(F)F)c1ccc(F)cc1` (stereo partly drawn) [Compound 1082, N-[4-(4-amino-7-{1-[1-(2-{[2-(2,6-dioxopiperidin-3-yl)-1,3-dioxo-2,3-dihydro-1H-isoindol-4-yl]oxy}acetyl)piperidin-4-yl]-1H-pyrazol-4-yl}-1-methyl-1H-pyrazolo[4,3-c]pyridin-3-yl)-^2-[(1S)-1-(4-fluorophenyl)ethoxy]phenyl]-1,1-difluoromethanesulfonamide], the pKd on human MLKL (full length) is over 8.00. Moreover, in assay [1], the pIC50 was 5.00 to 6.00. Besides, the DC50 at endogenous MLKL in U937 was under 1000 nM; at endogenous MLKL in MDF, 1000 to 10000 nM.
Take `C[C@H](Oc1cc(-c2nn(C)c3c(-c4cnn(C5CCN(CC6CCN(c7cccc8c7C(=O)N(C7CCC(=O)NC7=O)C8=O)C6)CC5)c4)cnc(N)c23)ccc1NS(=O)(=O)C(F)F)c1ccc(F)cc1` (stereo partly drawn) [Compound 1083, N-[4-(4-amino-7-{1-[1-({1-[2-(2,6-dioxopiperidin-3-yl)-1,3-dioxo-2,3-dihydro-1H-isoindol-4-yl]pyrrolidin-3-yl}methyl)piperidin-4-yl]-1H-pyrazol-4-yl}-1-methyl-1H-pyrazolo[4,3-c]pyridin-3-yl}-2-[(1S)-1-(4-fluorophenyl)ethoxy]phenyl]-1,1-difluoromethanesulfonamide]: on human MLKL (full length), the pKd was over 8.00. For the same molecule, the pIC50 in assay [1] is over 6.00. For the same molecule, the 50% degradation concentration (DC50) at endogenous MLKL in U937 and on endogenous MLKL in MDF was under 1000 nM throughout.
With `C[C@H](Oc1cc(-c2nn(C)c3c(-c4cnn(C5CCN(C(=O)COc6ccc7c(c6)C(=O)N(C6CCC(=O)NC6=O)C7=O)CC5)c4)cnc(N)c23)ccc1NS(=O)(=O)C(F)F)c1ccc(F)cc1` (some centres unmarked) [Compound 1085, N-[4-(4-amino-7-{1-[1-(2-{[2-(2,6-dioxopiperidin-3-yl)-1,3-dioxo-2,3-dihydro-1H-isoindol-5-yl]oxy}acetyl)piperidin-4-yl]-1H-pyrazol-4-yl}-1-methyl-1H-pyrazolo[4,3-c]pyridin-3-yl)-2-[(1 S)-1-(4-fluorophenyl)ethoxy]phenyl]-1,1-difluoromethanesulfonamide], the pKd at human MLKL (full length) is over 8.00. In addition, the pIC50 in assay [1] is over 6.00. Further, the DC50 was under 1000 nM at endogenous MLKL in U937 and 1000 to 10000 nM at endogenous MLKL in MDF.
For `CCS(=O)(=O)Nc1ccc(-c2nn(C)c3c(-c4cnn(C5CCN(C(=O)CCC6CCN(c7cccc8c7C(=O)N(C7CCC(=O)NC7=O)C8=O)CC6)CC5)c4)cnc(N)c23)cc1F` (centres unmarked) [Compound 1088, N-[4-(4-amino-7-{1-[1-(3-{1-[2-(2,6-dioxopiperidin-3-yl)-1,3-dioxo-2,3-dihydro-1H-isoindol-4-yl]piperidin-4-yl}propanoyl)piperidin-4-yl]-1H-pyrazol-4-yl}-1-methyl-1H-pyrazolo[4,3-c]pyridin-3-yl}-2-fluorophenyl]ethane-1-sulfonamide], on human MLKL (full length), the pKd was over 8.00. In addition, the pIC50 in assay [1] was over 6.00. Also, the DC50 on endogenous MLKL in U937 and on endogenous MLKL in MDF was under 1000 nM each time.
